From patent EP0170121A1, “2-Hydroxy-3-aryloxypropyl or 2-hydroxy-2-benzofuranyl ethyl tertiary amine having an anti-hyperglycaemic and/or anti-obesity activity” (BEECHAM GROUP PLC, priority 1984, dated 1986)
Structures can show the parent of a compound that is named as a salt. Marks after values point to notes of the source that are not given here.

Assays:
Type in all cases: in vivo
[1] = tested on: Female CD1 mice; assay: Effect on energy expenditure of mice (oxygen consumption, oral dosing); details: p.o. in water, percentage of the rate of energy expenditure of the mice dosed with water, dose differs per compound (Dose mg/kg p.o.); for Mean Energy Expenditure (0-3h): 0-3h after dosing; for Mean Energy Expenditure (0-21h): 0-21h after dosing
Protocol: Female CD1 mice each weighing approximately 24 g were given food and water ad lib before and during the experiment. The compounds were dissolved in water and these solutions were administered orally to each of 12 mice. A further 12 mice were dosed orally with water. The mice were placed in groups of threes in boxes through which air was drawn and the oxygen content of the air leaving the boxes was measured. The energy expenditure of the mice was calculated for 3 and 21 hours after dosing from the volume of air leaving the boxes and its oxygen content, following the principles described by J.B. de V. Weir, J. Physiol. (London) 109, 1-9 (1949). The results are expressed as a percentage of the rate of energy expenditure of the mice dosed with water.

[2] = tested on: Male Sprague-Dawley rats; assay: Effect on energy expenditure of rats (oxygen consumption, oral dosing); details: deprived of food, p.o. in water, percentage of the rate of energy expenditure of the rats dosed with water, dose differs per compound (Dose mg/kg p.o.); for Mean Energy Expenditure (0-3h): 0-3h after dosing; for Mean Energy Expenditure (0-21h): 0-21h after dosing
Protocol: Male Sprague-Dawley rats each weighing between 170-200 g were deprived of food for 16 hours before, and during the experiment. Water was provided ad lib at all times. The compounds were administered orally in water to 3 or 4 rats. A further 4 rats were dosed orally with water. The rats were placed in boxes through which air was drawn and the oxygen content of the air leaving the boxes was measured. The energy expenditure of the rats was calculated for 3 hours and for 21 hours after dosing from the volume of air leaving the boxes and its oxygen content, following the principles described by J.B. de V. Weir, J. Physiol. (London) 109, 1-9 (1949). The results are expressed as a percentage of the rate of energy expenditure of the rats dosed with water.

[3] = tested on: Female CFLP mice; assay: Hypoglycaemic activity: subcutaneous glucose load, area under blood glucose curve; details: female CFLP mice fasted 24 hours; compound orally 30 minutes before glucose 1 g/kg s.c.; 2 hour period; versus control mice given water; dose differs per compound (Dose µmol/kg)
Protocol: Female CFLP mice, weighing approximately 25 g, were fasted for 24 hours prior to the study. The compounds under study were administered orally as an aqueous solution to each of 6 mice. 30 minutes later a blood sample (20 µl) was obtained from the tail for the analysis of blood glucose. Immediately after taking this blood sample, glucose (1 g/kg body weight) was administered subcutaneously to each mouse. 6 mice were given water as a control. Blood samples were then obtained from each mouse at 30 minute intervals for 120 minutes.
Compounds that produced a significant (p<0.05) reduction of blood glucose, compared with control mice given water, at any time interval, were considered active. The area under the blood glucose curve over the 2 hour period after the administration of the glucose was calculated for each compound and compared with the value for control animals.

## COC(=O)c1ccc(C[C@@H](C)N(C[C@@H](O)COc2ccccc2)C[C@@H](O)COc2ccccc2)cc1 [Example 2, Methyl 4-[(R)-2-[bis-[(R)-2-hdroxy-3-penoxypropyl]amino]propyl]benzoate, fumarate]
[1]
  Mean Energy Expenditure (0-3h): 122 percentage
  Mean Energy Expenditure (0-21h): 97 percentage
[2]
  Mean Energy Expenditure (0-3h): 114 percentage
  Mean Energy Expenditure (0-21h): 100 percentage

## CNC(=O)c1ccc(C[C@@H](C)N(C[C@H](O)COc2ccccc2)C[C@H](O)COc2ccccc2)cc1 [Example 3, N-Methyl 4-[(R)-2-[bis-[(S)-2-hydrpxy-3-phenoxypropyl]amino]propyl]benzamide, fumarate]
[1]
  Mean Energy Expenditure (0-3h): 133 percentage
  Mean Energy Expenditure (0-21h): 109 percentage
[2]
  Mean Energy Expenditure (0-3h): 114 percentage
  Mean Energy Expenditure (0-21h): 100 percentage
[3]
  % Reduction in Area under Blood Glucose Curve: 12%

## COC(=O)c1ccc(C[C@@H](C)N(C[C@@H](O)COc2ccccc2)C[C@H](O)c2ccccc2)cc1 [Example 5, Methyl 4-[(R)-2-[N-[(R)-2-hydroxy-2-phenethyl]-N-[(R)-2-hydroxy-3-phenoxypropyl]amino]propyl]benzoate hydrochloride]
[1]
  Mean Energy Expenditure (0-3h): 136 percentage
  Mean Energy Expenditure (0-21h): 112 percentage
[3]
  % Reduction in Area under Blood Glucose Curve: 38%

## CNC(=O)c1ccc(C[C@@H](C)N(C[C@H](O)COc2ccccc2)C[C@H](O)c2ccccc2)cc1 [Example 6, N-Methyl 4-[(R)-2-[N'-[(R)-2-hydroxy-2-phenethyl]-N'-[(S)-2-hydroxy-3-phenoxypropyl]amino]propyl]benzamide]
[1]
  Mean Energy Expenditure (0-3h): 126 percentage
  Mean Energy Expenditure (0-21h): 110 percentage
[2]
  Mean Energy Expenditure (0-3h): 112 percentage
  Mean Energy Expenditure (0-21h): 108 percentage
[3]
  % Reduction in Area under Blood Glucose Curve: 13%

## CNC(=O)c1ccc(C[C@@H](C)N(C[C@@H](O)COc2ccccc2)C[C@H](O)c2ccccc2)cc1 [Example 7, N-Methyl 4-[(R)-2-[N'-[(R)-2-hydroxy-2-phenethyl]-N'-[(R)-2-hydroxy-3-phenoxypropyl]amino]propyl]benzamide]
[1]
  Mean Energy Expenditure (0-3h): 119 percentage
  Mean Energy Expenditure (0-21h): 102 percentage
[3]
  % Reduction in Area under Blood Glucose Curve: 18%

## COC(=O)c1ccc(C[C@@H](C)N(CC(O)c2cc(Cl)c(N)c(Cl)c2)C[C@H](O)COc2ccccc2)cc1 (stereo partly drawn) [Example 10, Methyl 4-[(R)-2-[N-[2-(4-amino-3,5-dichlorophenyl]-2-hydroxyethyl]-N-[(S)-2-hydroxy-3-phenoxypropyl]amino]propyl benzoate]
[1]
  Mean Energy Expenditure (0-3h): 121 percentage
  Mean Energy Expenditure (0-21h): 122 percentage
[3]
  % Reduction in Area under Blood Glucose Curve: 31%

## C[C@H](CCc1ccc(C(N)=O)cc1)N(C[C@H](O)COc1ccccc1)C[C@H](O)c1ccccc1 [Example 12, 4-[(R)-3-[N-(R)-2-Hydroxy-2-phenethyl-N-[(S)-2-hydroxy-3-phenoxypropyl]amino]butyl]benzamide]
[1]
  Mean Energy Expenditure (0-3h): 111 percentage
  Mean Energy Expenditure (0-21h): 103 percentage
[2]
  Mean Energy Expenditure (0-3h): 139 percentage
  Mean Energy Expenditure (0-21h): 113 percentage
[3]
  % Reduction in Area under Blood Glucose Curve: 28%

## Br.C[C@H](CCc1ccc(C(N)=O)cc1)N(C[C@H](O)COc1ccccc1)C[C@H](O)COc1ccccc1.O.O [Example 13, 4-[(R)-3-[Bis-[(S)-2-hydroxy-3-phenoxypropyl]amino]butyl]-benzamide, hydrobromide, dihydrate]
[1]
  Mean Energy Expenditure (0-3h): 103 percentage
  Mean Energy Expenditure (0-21h): 105 percentage
[2]
  Mean Energy Expenditure (0-3h): 108 percentage
  Mean Energy Expenditure (0-21h): 106 percentage
[3]
  % Reduction in Area under Blood Glucose Curve: 15%

## C[C@H](Cc1ccc(OCC(N)=O)cc1)N(C[C@H](O)COc1ccccc1)C[C@H](O)c1cccc(Cl)c1 [Example 19, 4-[(R)-2-[N-[(R)-2-(3-Chlorophenyl)-2-hydroxyethyl]-N-[(S)-2-hydroxy-3-phenoxypropyl]amino]propyl]phenoxyacetamide, hydrochloride, hemihydrate]
[2]
  Mean Energy Expenditure (0-3h): 120 percentage
  Mean Energy Expenditure (0-21h): 106 percentage
[3]
  % Reduction in Area under Blood Glucose Curve: 43%

## CCOC(=O)COc1ccc(CC[C@@H](C)N(C[C@H](O)COc2ccccc2)C[C@H](O)c2ccccc2)cc1 [Example 21, Ethyl 4-[(R)-3-[N-[(R)-2-hydroxy-2-phenethyl]-N-[(S)-2-hydroxy-3-phenoxypropyl]amino]butyl]phenoxyacetate, hydrochloride]
[2]
  Mean Energy Expenditure (0-3h): 110 percentage
  Mean Energy Expenditure (0-21h): 107 percentage

## C[C@H](Cc1ccc(OCCO)cc1)N(C[C@H](O)COc1ccccc1)C[C@H](O)c1ccccc1 [Example 22, 4-[(R)-2-[N-[(R)-2-Hydroxy-2-phenethyl]-N-[(S)-2-hydroxy 3-phenoxypropyl]amino]propyl]phenoxyethanol, hydrochloride, hemihydrate]
[2]
  Mean Energy Expenditure (0-3h): 120 percentage
  Mean Energy Expenditure (0-21h): 107 percentage

## COC(=O)COc1ccc(C[C@@H](C)N(C[C@H](O)COc2ccccc2)C[C@H](O)c2ccccc2)cc1 [Example 24, Methyl 4-[(R)-2-(N-[(R)-2-hydroxy-2-phenethyl]-N-[(S)-2-hydroxy-3-phenoxypropyl]amino]propyl]phenoxyacetate, hydrochloride, hemihydrate]
[2]
  Mean Energy Expenditure (0-3h): 146 percentage
  Mean Energy Expenditure (0-21h): 122 percentage

## C[C@H](COc1ccc(OCC(N)=O)cc1)N(C[C@H](O)COc1ccccc1)C[C@H](O)c1ccccc1 [Example 25, 4-[(R)-2-[N-[(R)-2-Hydroxy-2-phenethyl]-N-[(S)-2-hydroxy-3-phenoxypropyl]amino]propoxy]phenoxyacetamide, hydrochloride]
[2]
  Mean Energy Expenditure (0-3h): 126 percentage
  Mean Energy Expenditure (0-21h): 115 percentage

## CCOC(=O)COc1ccc(C[C@@H](C)N(CC(O)c2cc3ccccc3o2)C[C@H](O)COc2ccccc2)cc1.Cl (stereo partly drawn) [Example 26, Ethyl 4-[(R)-2-[N-[2-(2-benzofuranyl)-2-hydroxyethyl]-N-[(S)-2-hydroxy-3-phenoxypropyl]amino]propyl]phenoxyacetate, hydrochloride]
[2]
  Mean Energy Expenditure (0-3h): 142 percentage
  Mean Energy Expenditure (0-21h): 117 percentage
[3]
  % Reduction in Area under Blood Glucose Curve: 34%

## CCOC(=O)COc1ccc(C[C@@H](C)N(CC(O)c2cc3ccccc3o2)C[C@H](O)c2ccccc2)cc1 (stereo partly drawn) [Example 27, Ethyl 4-[(R)-2-[N-[(R)-2-hydroxy-2-phenethyl]-N-[2-(2-benzofuranyl)-2-hydroxyethyl]amino]propyl]phenoxyacetate hydrochloride]
[2]
  Mean Energy Expenditure (0-3h): 134 percentage
  Mean Energy Expenditure (0-21h): 114 percentage

## C[C@H](Cc1ccc(OCC(N)=O)cc1)N(C[C@@H](O)COc1ccccc1)C[C@H](O)c1ccc(O)cc1 [Example 28, 4-[(R)-2-[N-[(R)-2-Hydroxy-2-(4-hydroxyphenyl)ethyl]-N-[(R)-2-hydroxy-3-phenoxypropyl]amino]propyl]phenoxyacetamide]
[2]
  Mean Energy Expenditure (0-3h): 131 percentage
  Mean Energy Expenditure (0-21h): 117* percentage

## COC(=O)COc1ccc(CC(C)N(CC(O)COc2ccccc2)CC(O)c2cc(Cl)c(N)c(Cl)c2)cc1 (stereo not shown) [Example 29, Methyl 4-[2-[N-[2-(4-amino-3,5-dichlorophenyl)-2-bydroxy-ethyl]-N-[2-hydroxy-3-phenoxypropyl]amino]propyl]phenoxyacetate, hemifumarate]
[2]
  Mean Energy Expenditure (0-3h): 131 percentage
  Mean Energy Expenditure (0-21h): 122* percentage

## CC(Cc1ccc(OCC(N)=O)cc1)N(CC(O)COc1ccccc1)CC(O)c1cc(Cl)c(N)c(Cl)c1 (stereo not shown) [Example 30, 4-[2-[N-[2-(4-Amino-3,5-dichlorophenyl)-2-hydroxyethyl]-N-[2-hydroxy-3-phenoxypropyl]amino]propyl]phenoxyacetamide]
[2]
  Mean Energy Expenditure (0-3h): 129 percentage
  Mean Energy Expenditure (0-21h): 116* percentage
